The record followed here is the Kinase Knowledgebase extract (Sharma et al. 2016).

For the test, the target named is PIK3CG (human) (UniProt P48736). The test can be described thus: Assessment of PIK3CG Kinase Activity.
PIK3CG (human), sequence (P48736 whole entry, looked up): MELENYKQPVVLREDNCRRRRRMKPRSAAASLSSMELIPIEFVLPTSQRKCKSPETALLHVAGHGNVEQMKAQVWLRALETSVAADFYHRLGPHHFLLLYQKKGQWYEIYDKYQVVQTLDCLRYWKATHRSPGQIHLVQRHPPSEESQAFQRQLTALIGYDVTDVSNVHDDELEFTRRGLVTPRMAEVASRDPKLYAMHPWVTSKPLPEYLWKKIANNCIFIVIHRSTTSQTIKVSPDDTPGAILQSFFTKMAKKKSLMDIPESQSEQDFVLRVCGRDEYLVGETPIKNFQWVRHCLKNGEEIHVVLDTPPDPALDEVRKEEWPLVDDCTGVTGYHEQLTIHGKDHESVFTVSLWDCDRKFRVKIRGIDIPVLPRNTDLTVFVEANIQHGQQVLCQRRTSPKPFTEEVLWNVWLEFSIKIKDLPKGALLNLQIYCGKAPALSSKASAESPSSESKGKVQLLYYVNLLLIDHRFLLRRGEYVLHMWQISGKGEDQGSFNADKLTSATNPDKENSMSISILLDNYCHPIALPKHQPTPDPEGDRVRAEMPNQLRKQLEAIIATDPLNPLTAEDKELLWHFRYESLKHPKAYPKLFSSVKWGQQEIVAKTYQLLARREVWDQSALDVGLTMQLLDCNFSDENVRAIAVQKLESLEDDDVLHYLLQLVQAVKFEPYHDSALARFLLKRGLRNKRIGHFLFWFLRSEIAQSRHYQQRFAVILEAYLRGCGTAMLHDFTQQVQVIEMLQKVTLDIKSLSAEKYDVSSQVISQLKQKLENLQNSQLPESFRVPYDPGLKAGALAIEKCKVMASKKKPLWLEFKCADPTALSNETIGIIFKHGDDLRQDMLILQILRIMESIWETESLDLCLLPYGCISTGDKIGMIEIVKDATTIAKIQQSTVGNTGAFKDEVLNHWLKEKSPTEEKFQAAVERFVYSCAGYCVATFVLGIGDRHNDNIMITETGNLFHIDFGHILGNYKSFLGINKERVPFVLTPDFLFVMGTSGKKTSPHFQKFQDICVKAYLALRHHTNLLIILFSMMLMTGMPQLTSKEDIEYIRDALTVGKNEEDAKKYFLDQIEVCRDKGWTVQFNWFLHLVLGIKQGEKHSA
The term IC50 denotes the concentration at which inhibition is half-maximal. Low values mean greater potency, high ones weaker potency. On to `COc1cc2sc(C(=O)Nc3nnn[nH]3)c(OCc3ccc4ccccc4c3)c2cc1OC`, for which the IC50 came to 210 nM.

For `COc1cc2c(Oc3ccc(C(C)(C)C)c(C(C)(C)C)c3)c(C(=O)Nc3nn[nH]n3)sc2cc1C`, the half-inhibitory concentration (IC50) is 2340 nM.

In the case of `COc1cc2c(Oc3ccc(C4CC(C)(C)CC(C)(C)C4)cc3)c(C(=O)Nc3nn[nH]n3)sc2cc1C`, the IC50 amounted to 325 nM.

On to `COc1cc2sc(C(=O)Nc3nnn[nH]3)c(Oc3ccc(CCCSc4ccc(Cl)cc4)cc3)c2cc1C`, for which the IC50 was determined as 2610 nM.

For `COc1cc2c(Oc3ccc(C4CCNCC4)cc3)c(C(=O)Nc3nn[nH]n3)sc2cc1C`, the IC50 stood at 365 nM.

In turn, `COc1cc2c(Oc3ccc(C4CCCC(O)C4)cc3)c(C(=O)Nc3nn[nH]n3)sc2cc1C` (configuration not stated) gave an IC50 of 8 nM.

Regarding `COc1cc2c(Oc3ccc(C4CCSCC4)cc3)c(C(=O)Nc3nn[nH]n3)sc2cc1C`, the 50% inhibitory concentration (IC50) was found to be 8 nM.

As to `COc1cc2c(Oc3ccc(C4CCN(C(C)=O)CC4)cc3)c(C(=O)Nc3nn[nH]n3)sc2cc1C`, the IC50 turned out to be 14 nM.

For the compound `COc1cc2sc(C(=O)Nc3nn[nH]n3)c(Oc3cccc(C(=N)N)c3)c2cc1C`, the IC50 turned out to be 388 nM.

In turn, `COc1cc2c(Oc3ccc(C4CCN(C(=O)C(C)C)CC4)cc3)c(C(=O)Nc3nn[nH]n3)sc2cc1C` came in with an IC50 of 11 nM.

In turn, `COc1cc2sc(C(=O)Nc3nnn[nH]3)c(Oc3ccc(CCCSC4CCCCC4)cc3)c2cc1C` registered an IC50 of 240 nM.

Compound `COc1cc2c(Oc3ccc(C(=O)c4ccccc4)cc3)c(C(=O)Nc3nn[nH]n3)sc2cc1C` came in with a 50% inhibitory concentration (IC50) of 27 nM.

Compound `COc1cc2c(Oc3ccc(C4CCN(C(=O)C(C)(C)NC(=O)OC(C)(C)C)CC4)cc3)c(C(=O)Nc3nn[nH]n3)sc2cc1C` yielded an IC50 of 20 nM.

Regarding `COc1cc2c(Oc3ccc(C(O)c4ccccc4)cc3)c(C(=O)Nc3nn[nH]n3)sc2cc1C` (configuration not stated), the IC50 stood at 8 nM.

As to `COc1cc2c(Oc3ccc(C(C4CCCCC4)N4CCCCC4)cc3)c(C(=O)Nc3nn[nH]n3)sc2cc1C` (configuration not stated), the IC50 turned out to be 715 nM.

Compound `COc1cc2c(OC[C@H](C)c3ccccc3)c(C(=O)Nc3nn[nH]n3)sc2cc1C` came in with an IC50 of 56 nM.

`COc1cc2c(Oc3ccc(C4CCOCC4)cc3)c(C(=O)Nc3nn[nH]n3)sc2cc1C` gave an IC50 of 9 nM.
